# Experimental data taken from patent publication US9492450B2, “Inhibition of dynamin related protein 1 to promote cell death” (University of Pittsburgh—of the Commonwealth System of …, priority 2011, dated 2016).
# Tests used:
# [1] = system: MDA-MB-231 cells; test: Caspase-3/7 activity assay (apoptosis); format: cell-based, human; details: 20 h
# Description: FIG. 18. […] Multidrug-resistant MDA-MB-231 breast carcinoma cells were treated with increasing doses of mdivi-1 alone, a series of anticancer drugs alone, or the combination of increasing doses of anticancer drugs with 20 μM mdivi-1 for 20 h. Apoptosis was determined by measuring the activity of caspase-3/7. The drugs tested were platinum agent, cisplatin; antifolate agent, methotrexate; topoisomerase II inhibitor, etoposide; cytidine analog, gemcitabine; pyrimidine analog, 5-FU; alkylating agents, cyclophosphamide, MMS and MNNG; DNA crosslinking agent, MMC; DNA intercalating agent, doxorubicin; and antimitotic drug, paclitaxel.
# FIG. 21A-F. Mdivi-1 enhances cisplatin sensitivity through Drp1-independent mechanisms. (A) Confirmation of the depletion of Drp1 in Drp1 knockout SV40-transformed MEF cells by western blot. (B) Drp1 wild-type (Drp1+/+) and knockout (Drp1−/−) MEF cells were treated as indicated for 20 h, and the number of apoptotic cells was determined by antibody recognizing cleaved caspase-3. […] (C) Drp1 wild-type and knockout MEF cells were treated with mdivi-1 for 24 h, and the cell number were determined by CyQuant assay. (D) OCR was measured after 1 h treatment of Drp1 wild-type and knockout MEF cells with DMSO or mdivi-1. (E) The combination effect of cisplatin with four analogs of mdivi-1. […]
# [2] = Synergy with cisplatin, experiments not described
# [3] = system: MDA-MB-231 cells; test: DNA content flow cytometry (propidium iodide): G2/M arrest and aneuploidy; format: cell-based, human; details: 5 μg/ml oligomycin, 5 μM FCCP or 10 μg/ml antimycin A, 24 h
# [4] = system: Drp1; details: as said in Cassidy-Stone et al., Dev Cell 14:193-204; cited from earlier work
compound,measurement,setting,value
C[C@]1(c2nc3c(C(N)=O)cccc3[nH]2)CCCN1 [ABT-888],"apoptosis, alone and in combination with cisplatin",[1]; series doses,resistant
O=C(N/N=C/c1ccc(O)c(O)c1)c1cc2ccccc2cc1O [Dynasore],synergistic effect with cisplatin,[2],have not demonstrated a synergistic effect
N#CC(C#N)=NNc1ccc(OC(F)(F)F)cc1 [FCCP],G2/M cell cycle arrest and aneuploidy,[3],did not induce G2/M cell cycle arrest and aneuploidy
COc1cc(-n2c(SC)nc3ccccc3c2=O)c(Cl)cc1Cl [compound F],efficacy in inhibiting Drp1 relative to mdivi-1,[4],poor efficacy
same,combination effect with cisplatin in enhancing apoptosis,[1]; 20 μM of agents alone or in combination with cisplatin,abolished the synergism with cisplatin
CC[C@H]1/C=C/C=C/C[C@@H](C)[C@H](O)[C@@](C)(O)C(=O)[C@@H](C)[C@H](O)[C@@H](C)C(=O)[C@@H](C)[C@H](O)[C@@H](C)/C=C/C(=O)O[C@@H]2[C@H](C)[C@H](CC1)O[C@]1(CC[C@H](C)[C@H](C[C@@H](C)O)O1)[C@H]2C [oligomycin],G2/M cell cycle arrest and aneuploidy,[3],did not induce G2/M cell cycle arrest and aneuploidy
antimycin A,G2/M cell cycle arrest and aneuploidy,[3],did not induce G2/M cell cycle arrest and aneuploidy
